Results from patent publication US10124022B2, “Compositions and methods for enhancing the effectiveness of systemic, HIPEC, IP, and related cancer treatments” (ChemoTherapeutics, LLC, priority 2010, dated 2018).
“And” between values parts separate entries of the source, which are not always exact repeats. Equal values may be shown once. Read-outs that look alike come from different tables or passages of the source.

Legend:
HCT-116 cells [1] = assay: MTS cell viability assay, drugs ± one-hour hyperthermia, cytotoxicity measured after three days (Studies 1-6);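 for all read-outs here: Drug-treated HCT-116 cells held one hour at 42 °C (hyperthermia) or 37 °C, then cultured at 37 °C, viability read by MTS in triplicate wells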; conditions: for % cell survival / growth inhibition at the concentrations tested / growth promoting effect / GI50 / cell survival: three days; for effect on the cytotoxicity caused by Selenite: Study 6, FIG. 6c; for GI50: HCT-116 cells; for cell survival: 200 nM
Description: For each study, two plates of HCT-116 cells were seeded in 96-well cell culture plates (2000 cells per well for three-day studies and 10,000 cells for one-day studies). The next day, drugs prepared in 200 μl of culture medium were added to the wells. […] Each treatment was completed in triplicate. One plate was incubated at 37° C. while the other plate was incubated at 42° C. (hyperthermia) for one hour (two hours for study 7 and 8). After the treatment, 4000 freshly harvested cells (cells which were not subjected to hyperthermia) were added to 3 wells of each plate to assess the effect of hyperthermia (for one-day experiments, 20,000 cells will be added). Both plates were incubated at 37° C. for the number of days specified in each study. Cell viability was measured using MTS assay (Promega CellTiter 96 Aqueous MTS Assay reagents).
Cytotoxicity was measured after three days.
The non-chemotherapeutic agent combinations tested were: Vitamin C/Selenite and Vitamin C/Selenite/Quercetin. Cytotoxicity was measured after three days.
The non-chemotherapeutic agent combinations tested were: Vitamin E/Selenite/Quercetin and Selenite/Quercetin. Cytotoxicity was measured after three days.
Tested the cytotoxic effects of combination treatments (±hyperthermia at 42° C. for one hour) with chemotherapeutic reagents (Mitomycin C at 0.2 and 0.8 μM or Cisplatin at 2.5 and 10 μM) and four non-chemotherapeutic reagents (100 nM Vitamin D, 40 μM Vitamin E, 20 μM Selenite and 150 μNA Quercetin). The non-chemotherapeutic agent combinations tested were: Quercetin/Vitamin D/Vitamin E/Selenite, Vitamin E/Selenite, and Vitamin D/Vitamin E/Selenite. Cytotoxicity was measured after three days.
The non-chemotherapeutic agent combinations tested were: Vitamin C/Selenite, Vitamin C/Quercetin, Selenite/Quercetin and Vitamin C/Selenite/Quercetin. Cytotoxicity was measured after three days.

HCT-116 cells [2] = assay: MTS assay, two-hour drug treatment, drugs replaced with fresh medium, measured after one day (Study 7b); conditions: FIG. 7b
Description: For each study, two plates of HCT-116 cells were seeded in 96-well cell culture plates (2000 cells per well for three-day studies and 10,000 cells for one-day studies). The next day, drugs prepared in 200 μl of culture medium were added to the wells. […] Each treatment was completed in triplicate. One plate was incubated at 37° C. while the other plate was incubated at 42° C. (hyperthermia) for one hour (two hours for study 7 and 8). After the treatment, 4000 freshly harvested cells (cells which were not subjected to hyperthermia) were added to 3 wells of each plate to assess the effect of hyperthermia (for one-day experiments, 20,000 cells will be added). […] Cell viability was measured using MTS assay (Promega CellTiter 96 Aqueous MTS Assay reagents).
Tested the short-term cytotoxic effects of combination treatments (±hyperthermia at 42° C. for two hour) with chemotherapeutic reagents (0.2 μM Mitomycin C or 10 μM Cisplatin) and three non-chemotherapeutic reagents (1.25 mM Vitamin C, 20 μM Selenite and 150 μM Quercetin). […] Cytotoxicity was measured with MTS assay immediately after the two-hour drug/hyperthermia treatment. • b. […] Drugs were replaced with fresh medium after the treatment, and the cytotoxic effect was measured after one day. • c. Cells were incubated with drugs for one day before the cytotoxicity was measured.

[3] = Study 5, no chemotherapeutic, 100 nM Vitamin D, 40 μM Vitamin E, 20 μM Selenite, 150 μM Quercetin as named, 37° C.
[4] = Study 5, no chemotherapeutic, 100 nM Vitamin D, 40 μM Vitamin E, 20 μM Selenite, 150 μM Quercetin as named, 42° C. 1 hr
[5] = Study 4, no chemotherapeutic, 40 μM Vitamin E, 20 μM Selenite, 150 μM Quercetin as named, 37° C.
[6] = Study 4, no chemotherapeutic, 40 μM Vitamin E, 20 μM Selenite, 150 μM Quercetin as named, 42° C. 1 hr
[7] = read-out: Growth inhibition (GI50)

With `O=c1c(O)c(-c2ccc(O)c(O)c2)oc2cc(O)cc(O)c12` [Quercetin] the “% cell survival” value (HCT-116 cells [1]; Study 2, 20 μM, 37° C.) was 129%, the “% cell survival” value (HCT-116 cells [1]; Study 2, 20 μM, 42° C. 1 hr) was 118% and the “% cell survival” value (HCT-116 cells [1]; Study 2, 100 μM, 37° C.) was 123%. The “% cell survival” value (HCT-116 cells [1]; Study 2, 100 μM, 42° C. 1 hr) was 111%, the “growth inhibition at the concentrations tested” value (HCT-116 cells [1]; Study 2) was “did not show significant growth inhibition” and the “growth promoting effect” value (HCT-116 cells [1]; Study 2) was “slight growth promoting effect at the lower concentrations tested”. For the same compound, the “cancer cell killing without chemotherapeutic agent, compared to the agents alone” value (HCT-116 cells [1]; Study 3, FIG. 3b) was “did not show enhanced killing”, the “effect on cytotoxicity of the co-administered treatment” value (HCT-116 cells [1]; Study 4, FIG. 4b-4d) was “reduced the cytotoxicity of Selenite” and the “effect on cytotoxicity of the co-administered treatment” value (HCT-116 cells [1]; Study 5, FIG. 5b-5e) was “reduced the cytotoxicity of Selenite/Vit-D/Vit-E”. The “% cell survival” value (HCT-116 cells [1]; [3]) was 98.0%, the “% cell survival” value (HCT-116 cells [1]; [4]) was 89.5% and the “effect on the cytotoxicity caused by Selenite” value (HCT-116 cells [1]) was “reduced the cytotoxicity caused by Selenite”.

`O=[Se](O)O` [Selenite] was tested, and the “effect of hyperthermia treatment on cell growth” value (HCT-116 cells [1]; Study 2, 42° C. 1 hr vs 37° C.) was “No significant effect”, the “% cell survival” value (HCT-116 cells [1]; [5]) was 45% and the “% cell survival” value (HCT-116 cells [1]; [6]) was 39.7% and 39.8%. The “% cell survival” value (HCT-116 cells [1]; [3]) was 42.6%, the “% cell survival” value (HCT-116 cells [1]; [4]) was 32.9% and the GI50 (HCT-116 cells [1]; [7]) was ~30 µM.

With `CO[C@@]12[C@H](COC(N)=O)C3=C(C(=O)C(C)=C(N)C3=O)N1C[C@@H]1N[C@@H]12` [Mitomycin C, reference compound] the “% cell survival” value (HCT-116 cells [1]; Study 3, 0.2 μM Mitomycin C, alone or with 1.25 mM Vitamin C, 20 μM Selenite as named, 37° C.) was 35%, the “% cell survival” value (HCT-116 cells [1]; Study 3, 0.2 μM Mitomycin C, alone or with 1.25 mM Vitamin C, 20 μM Selenite as named, 42° C. 1 hr) was 36.9% and the “% cell survival” value (HCT-116 cells [1]; Study 3, 0.8 μM Mitomycin C, alone or with 1.25 mM Vitamin C, 20 μM Selenite as named, 37° C.) was 16.9%. For the same compound, the “% cell survival” value (HCT-116 cells [1]; Study 3, 0.8 μM Mitomycin C, alone or with 1.25 mM Vitamin C, 20 μM Selenite as named, 42° C. 1 hr) was 15.5%, the “% cell survival” value (HCT-116 cells [1]; Study 4, 0.2 μM Mitomycin C, alone or with 40 μM Vitamin E, 20 μM Selenite, 150 μM Quercetin as named, 37° C.) was 33.3% and the “% cell survival” value (HCT-116 cells [1]; Study 4, 0.2 μM Mitomycin C, alone or with 40 μM Vitamin E, 20 μM Selenite, 150 μM Quercetin as named, 42° C. 1 hr) was 36.5%. The “% cell survival” value (HCT-116 cells [1]; Study 4, 0.8 μM Mitomycin C, alone or with 40 μM Vitamin E, 20 μM Selenite, 150 μM Quercetin as named, 37° C.) was 16.4%, the “% cell survival” value (HCT-116 cells [1]; Study 4, 0.8 μM Mitomycin C, alone or with 40 μM Vitamin E, 20 μM Selenite, 150 μM Quercetin as named, 42° C. 1 hr) was 22.1% and the GI50 (HCT-116 cells [1]; [7]) was 1.3 µM.

For Vitamin E, the “% cell survival” value (HCT-116 cells [1]; Study 2, 0.32 μM, 37° C.) was 111%, the “% cell survival” value (HCT-116 cells [1]; Study 2, 0.32 μM, 42° C. 1 hr) was 95.5% and the “% cell survival” value (HCT-116 cells [1]; Study 2, 1.6 μM, 37° C.) was 116%. The “% cell survival” value (HCT-116 cells [1]; Study 2, 1.6 μM, 42° C. 1 hr) was 102%, the “growth promoting effect” value (HCT-116 cells [1]; Study 2) was “slight growth promoting effect at the lower concentrations tested for 37 °C treated group” and the “% cell survival” value (HCT-116 cells [1]; [5]) was 105.7%. The “% cell survival” value (HCT-116 cells [1]; [6]) was 81.6%, the “% cell survival” value (HCT-116 cells [1]; [3]) was 112.2% and the “% cell survival” value (HCT-116 cells [1]; [4]) was 95.5%. The GI50 (HCT-116 cells [1]; [7]) was ~90 µM.

Vitamin D was tested, and the cell survival (HCT-116 cells [1]; Study 2, 37° C.) was 122%, the cell survival (HCT-116 cells [1]; Study 2, 42° C. 1 hr) was 110% and the “growth inhibition at the concentrations tested” value (HCT-116 cells [1]; Study 2) was “did not show significant growth inhibition”. For the same compound, the “growth promoting effect” value (HCT-116 cells [1]; Study 2) was “slight growth promoting effect at the higher concentrations tested”.

With `N.N.[Cl][Pt][Cl]` [Cisplatin, reference compound] the “cancer cell killing after 2 hours of treatment, cell survival measured one day later” value (HCT-116 cells [2]) was “additional killing effect”, the “% cell survival” value (HCT-116 cells [1]; Study 4, 2.5 μM Cisplatin, alone or with 40 μM Vitamin E, 20 μM Selenite, 150 μM Quercetin as named, 37° C.) was 74.7% and the “% cell survival” value (HCT-116 cells [1]; Study 4, 2.5 μM Cisplatin, alone or with 40 μM Vitamin E, 20 μM Selenite, 150 μM Quercetin as named, 42° C. 1 hr) was 61.7%. For the same compound, the “% cell survival” value (HCT-116 cells [1]; Study 4, 10 μM Cisplatin, alone or with 40 μM Vitamin E, 20 μM Selenite, 150 μM Quercetin as named, 37° C.) was 37.5%, the “% cell survival” value (HCT-116 cells [1]; Study 4, 10 μM Cisplatin, alone or with 40 μM Vitamin E, 20 μM Selenite, 150 μM Quercetin as named, 42° C. 1 hr) was 37.5% and the “% cell survival” value (HCT-116 cells [1]; Study 5, 2.5 μM Cisplatin, alone or with 100 nM Vitamin D, 40 μM Vitamin E, 20 μM Selenite, 150 μM Quercetin as named, 37° C.) was 86.1%. For the same compound, the “% cell survival” value (HCT-116 cells [1]; Study 5, 2.5 μM Cisplatin, alone or with 100 nM Vitamin D, 40 μM Vitamin E, 20 μM Selenite, 150 μM Quercetin as named, 42° C. 1 hr) was 76.0%, the “% cell survival” value (HCT-116 cells [1]; Study 5, 10 μM Cisplatin, alone or with 100 nM Vitamin D, 40 μM Vitamin E, 20 μM Selenite, 150 μM Quercetin as named, 37° C.) was 52.1% and the “% cell survival” value (HCT-116 cells [1]; Study 5, 10 μM Cisplatin, alone or with 100 nM Vitamin D, 40 μM Vitamin E, 20 μM Selenite, 150 μM Quercetin as named, 42° C. 1 hr) was 41.9%. It also gave a GI50 (HCT-116 cells [1]; [7]) of 12 µM.

With `O=C1O[C@H]([C@@H](O)CO)C(O)=C1O` [Vitamin C] the GI50 (HCT-116 cells [1]) was ~2000 µM, the “% cell survival” value (HCT-116 cells [1]; Study 2, 0.08 mM, 37° C.) was 102% and the “% cell survival” value (HCT-116 cells [1]; Study 2, 0.08 mM, 42° C. 1 hr) was 92.6%. For the same compound, the “% cell survival” value (HCT-116 cells [1]; Study 2, 0.31 mM, 37° C.) was 97.6%, the “% cell survival” value (HCT-116 cells [1]; Study 2, 0.31 mM, 42° C. 1 hr) was 89% and the “effect on the cytotoxicity caused by Selenite” value (HCT-116 cells [1]) was “did not appear to modulate the cytotoxicity caused by Selenite”.
